In assay [1] the test system is Micrococcus luteus. Kind of assay: Antimicrobial activity against Micrococcus luteus assessed as inhibition of microbial growth at 0.03 to 3.33 ug/ml. It is filed as functional. The arrangement: scale not given: the % may be the effect or the level left. The conditions noted are these: dose 0.03-3.33 µg/ml; at 0.03 to 3.33 µg/mL.
Assay [2] deals with Micrococcus luteus. Kind of assay: Antimicrobial activity against Micrococcus luteus assessed as inhibition of microbial growth. It is filed as functional.

Each structure is given as a SMILES string.

Take `CO[C@]1(C)C[C@H](O[C@H]2[C@H](C)[C@@H](O[C@@H]3O[C@H](C)C[C@](O)(C(C)=O)[C@H]3O)[C@@H](C)C[C@](C)(O)C(=O)[C@H](C)[C@@H](OC(C)=O)[C@@H](C)[C@@H]([C@@H](C)[C@H](C)O)OC(=O)[C@@H]2C)O[C@@H](C)[C@H]1OC(C)=O`: the Activity in assay [1] amounted to 50%.
For the molecule `CO[C@H]1C[C@@H](C)O[C@@H](O[C@@H]2[C@@H](C)[C@H](O[C@H]3C[C@@](C)(OC)[C@H](OC(C)=O)[C@H](C)O3)[C@@H](C)C(=O)O[C@H]([C@@H](C)[C@H](C)O)[C@H](C)[C@H](OC(C)=O)[C@@H](C)C(=O)[C@@](C)(O)C[C@@H]2C)[C@@H]1O`, in assay [2], the minimal inhibitory concentration (MIC) – broadly, the lowest concentration that inhibits growth of the organism – amounted to 1 µg/mL.

The values above are taken from ChEMBL document CHEMBL5236665, “Accumulation of lankamycin derivative with a branched-chain sugar from a blocked mutant of chalcose biosynthesis in Streptomyces rochei 7434AN4” (2023).
